In experiment [1] the test system is OF1 mice. Briefly: Murine maximal electroshock test (MES test). The format is in vivo, mouse. As to conditions: for ED50: Mus musculus, po, pre-treatment time 1 h; for MES-Test (1 h, po) % protection @ 50: p.o., percentage of protected mice, printed '@ 50' (mg/kg). How it is done: Compounds of the invention were tested in OF1 mice using the maximal electroshock test (MES Test) described in detail by Schmutz et al., Naunyn-Schmiedeberg's Arch Pharmacol 1990, 342, 61-66. Briefly, generalized tonic-clonic convulsions of the hind extremities were induced by passing electrical current through temporal electrodes (50 Hz, 18 mA, 0.2 s). […] 30 mg/kg carbamazepine was used as a positive control; mice were classified as protected by a compound if the duration of the seizure lasted only 3 second or less. Five mice were used for each treatment condition and the percentage of protected mice was used as readout (i.e. a compound could give 0%, 20%, 40%, 60%, 80% or 100% protection). Compounds of the invention were given at a dose of 50 mg/kg, p.o., 1 hour prior to induction of convulsions (i.e. “pre-treatment time−1 h”).
ED50 values (ED: effective dose) were calculated using GraphPad Prism, v4.02.
15 s after shock administration, mouse blood was collected for determination of compounds' blood exposure.

For the next experiment, the system named is mouse. Nature of the experiment: Oral activity in vivo (audiogenic mouse test and/or MES test). As to conditions: oral administration. Here is the method:
The oral bioavailability was tested using the audiogenic mouse test (Audiogenic seizures, R. L. Collins; Chapter 14, pages: 347-372. In: Experimental Models of Epilepsy; By: Pupura, Penry, Tower, Woodbury, Waiter, Raven Press, New York, 1972. Standard Book Number: 0-911216-26-X) and/or the MES test.

The test system of experiment [2] is OF1 mice. Briefly: Murine maximal electroshock test (MES test). The format is in vivo, mouse. As to conditions: p.o., percentage of protected mice; for MES-Test (1 h, po) % protection @ 25: printed '@ 25' (mg/kg). For orientation: Protection in the maximal electroshock model is a classic sign of anticonvulsant action.

As a reminder, the ED50 is the dose that gives a 50% effect, or the effect in half of the subjects.

Regarding `CCC(OC(C)C)c1cc2c(=O)n(NS(C)(=O)=O)c(=O)[nH]c2cc1C(F)(F)F` (centres unmarked) [Compound A-7, N-[6-(1-Isopropoxy-propyl)-2,4-dioxo-7-trifluoromethyl-1,4-dihydro-2H-quinazolin-3-yl]-methanesulfonamide], the ED50 in the experiment with OF1 mice [1] amounted to 24.7 mg/kg. In the experiment with mouse, the “In vivo orally active” value is “Yes”.

Consider `CC(C)n1nccc1-c1cc2c(=O)n(NS(C)(=O)=O)c(=O)[nH]c2cc1C(F)F` [Compound C-10, N-[7-Difluoromethyl-6-(2-isopropyl-2H-pyrazol-3-yl)-2,4-dioxo-1,4-dihydro-2H-quinazolin-3-yl]-methanesulfonamide], for which the ED50 with OF1 mice [1] was 20.3 mg/kg. Also, the “In vivo orally active” value with mouse is listed as “Yes”.

As for `CC(O)c1cc2c(=O)n(NS(C)(=O)=O)c(=O)[nH]c2cc1C(F)(F)F` (centres unmarked) [Compound A-1, N-[6-(1-Hydroxy-ethyl)-2,4-dioxo-7-trifluoromethyl-1,4-dihydro-2H-quinazolin-3-yl]-methanesulfonamide], the ED50 in the experiment on OF1 mice [1] was 64 mg/kg. The “In vivo orally active” value with mouse is on record as “Yes”.

Regarding `CCc1cc2[nH]c(=O)n(NS(C)(=O)=O)c(=O)c2cc1-c1ccnn1CC` [Compound C-12, N-[7-Ethyl-6-(2-ethyl-2H-pyrazol-3-yl)-2,4-dioxo-1,4-dihydro-2H-quinazolin-3-yl]-methanesulfonamide], in the experiment with OF1 mice [1], the ED50 was found to be 42.8 mg/kg. In the experiment with mouse, the “In vivo orally active” value is recorded as “Yes”.

Regarding `Cn1nncc1-c1cc2c(=O)n(NS(C)(=O)=O)c(=O)[nH]c2cc1C(F)(F)F` [Comparative, N-(6-(1-methyl-1H-1,2,3-triazol-5-yl)-2,4-dioxo-7-trifluoromethyl-1,4-dihydro-2H-quinazolin-3-yl]-methanesulfonamide, reference compound], the “MES-Test (1 h, po) % protection @ 50” value in the experiment on OF1 mice [1] was 0% @ 50^. The “In vivo orally active” value with mouse is “No”.

Turning to `CCOC(C)c1cc2c(=O)n(NS(C)(=O)=O)c(=O)[nH]c2cc1C(F)(F)F` (centres unmarked) [Compound A-5, N-[6-(1-Ethoxy-ethyl)-2,4-dioxo-7-trifluoromethyl-1,4-dihydro-2H-quinazolin-3-yl]-methanesulfonamide], the ED50 in the experiment on OF1 mice [1] was 8.8 mg/kg. Further, the “In vivo orally active” value in the experiment on mouse was “Yes”.

With `Cn1nccc1-c1cc2c(=O)n(NS(C)(=O)=O)c(=O)[nH]c2cc1C(F)(F)F` [Compound C-18, N-[6-(2-Methyl-2H-pyrazol-3-yl)-2,4-dioxo-7-trifluoromethyl-1,4-dihydro-2H-quinazolin-3-yl]-methanesulfonamide], in the experiment on OF1 mice [1], the ED50 turned out to be 14.8 mg/kg. The “In vivo orally active” value with mouse was “Yes”.

On to `Cn1nccc1-c1cc2c(=O)n(NS(C)(=O)=O)c(=O)[nH]c2cc1C(F)F` [Compound C-9, N-[7-Difluoromethyl-6-(2-methyl-2H-pyrazol-3-yl)-2,4-dioxo-1,4-dihydro-2H-quinazolin-3-yl]-methanesulfonamide], for which the ED50 in the experiment with OF1 mice [1] came to 7.5 mg/kg. The “In vivo orally active” value in the experiment on mouse was “Yes”.

Take `Cn1nccc1-c1cc2c(=O)n(NS(C)(=O)=O)c(=O)[nH]c2cc1C(C)(F)F` [Compound C-15, N-[7-(1,1-difluoro-ethyl)-6-(2-methyl-2H-pyrazol-3-yl)-2,4-dioxo-1,4-dihydro-2H-quinazolin-3-yl]-methanesulfonamide]: in the experiment on mouse, the “In vivo orally active” value was “Yes”. The “MES-Test (1 h, po) % protection @ 20” value in the experiment on OF1 mice [2] (printed '@ 20' (mg/kg)) is 80% @ 20^.

In the case of `CC(C)c1cc2[nH]c(=O)n(NS(C)(=O)=O)c(=O)c2cc1-c1ccnn1C` [Compound C-7, N-[7-Isopropyl-6-(2-methyl-2H-pyrazol-3-yl)-2,4-dioxo-1,4-dihydro-2H-quinazolin-3-yl]-methanesulfonamide], in the experiment with OF1 mice [1], the ED50 came out at 6.9 mg/kg. Further, the “In vivo orally active” value in the experiment with mouse is given as “Yes”.

As to `CCc1cc2[nH]c(=O)n(NS(C)(=O)=O)c(=O)c2cc1-c1ccnn1C(C)C` [Compound C-6, N-[7-Ethyl-6-(2-isopropyl-2H-pyrazol-3-yl)-2,4-dioxo-1,4-dihydro-2H-quinazolin-3-yl]-methanesulfonamide], the “MES-Test (1 h, po) % protection @ 50” value in the experiment with OF1 mice [1] was 20% @ 50^. Also, the “In vivo orally active” value in the experiment with mouse is recorded as “yes”.

For `CC(C)c1cc2[nH]c(=O)n(NS(C)(=O)=O)c(=O)c2cc1-c1ccnn1C(C)C` [Compound C-8, N-[7-Isopropyl-6-(2-isopropyl-2H-pyrazol-3-yl)-2,4-dioxo-1,4-dihydro-2H-quinazolin-3-yl]-methanesulfonamide], the “MES-Test (1 h, po) % protection @ 50” value in the experiment on OF1 mice [1] is 40% @ 50^. Besides, the “In vivo orally active” value with mouse is “yes”.

Regarding `COCCn1nccc1-c1cc2c(=O)n(NS(C)(=O)=O)c(=O)[nH]c2cc1C(C)C` [Compound C-1, N-{7-Isopropyl-6-[2-(2-methoxy-ethyl)-2H-pyrazol-3-yl]-2,4-dioxo-1,4-dihydro-2H-quinazolin-3-yl}-methanesulfonamide], the “In vivo orally active” value with mouse was “yes”. The “MES-Test (1 h, po) % protection @ 25” value with OF1 mice [2] stood at 40% @ 25^.

With `CCCC(O)c1cc2c(=O)n(NS(C)(=O)=O)c(=O)[nH]c2cc1C(F)(F)F` (centres unmarked) [Compound A-15, N-[6-(1-Hydroxy-butyl)-2,4-dioxo-7-trifluoromethyl-1,4-dihydro-2H-quinazolin-3-yl]-methanesulfonamide], in the experiment on OF1 mice [1], the ED50 is 35 mg/kg. Besides, in the experiment on mouse, the “In vivo orally active” value is reported as “Yes”.

In the case of `CS(=O)(=O)Nn1c(=O)[nH]c2cc(C(F)(F)F)c(C3CCOC3)cc2c1=O` (centres unmarked) [Compound B-3, N-[2,4-Dioxo-6-(tetrahydro-furan-3-yl)-7-trifluoromethyl-1,4-dihydro-2H-quinazolin-3-yl]-methanesulfonamide], the “In vivo orally active” value in the experiment on mouse is “Yes”. Further, the “MES-Test (1 h, po) % protection @ 25” value in the experiment on OF1 mice [2] is recorded as 20% @ 25^3.

Turning to `COC(C)c1cc2c(=O)n(NS(C)(=O)=O)c(=O)[nH]c2cc1C(F)(F)F` (centres unmarked) [Compound A-2, N-[6-(1-Methoxy-ethyl)-2,4-dioxo-7-trifluoromethyl-1,4-dihydro-2H-quinazolin-3-yl]-methanesulfonamide], the median effective dose (ED50) in the experiment on OF1 mice [1] was found to be 6 mg/kg. The “In vivo orally active” value with mouse is recorded as “Yes”.
